Structures can show the parent of a compound that is named as a salt.

This assay deals with T1, purified human Factor XIa (Homo sapiens, UniProt P03951).
T1 construct: Determinations were made using purified human Factor XIa; purchased Sekisui Diagnostics
T1 sequence (P03951 388-625 limits assumed): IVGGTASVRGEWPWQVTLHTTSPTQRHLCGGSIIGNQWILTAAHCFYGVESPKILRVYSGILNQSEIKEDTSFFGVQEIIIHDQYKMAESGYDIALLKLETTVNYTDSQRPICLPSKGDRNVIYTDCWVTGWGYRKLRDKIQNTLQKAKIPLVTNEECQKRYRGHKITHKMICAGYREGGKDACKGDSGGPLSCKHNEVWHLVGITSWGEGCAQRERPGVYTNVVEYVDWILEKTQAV
T1 sequence (P03951 19-387 partner limits assumed): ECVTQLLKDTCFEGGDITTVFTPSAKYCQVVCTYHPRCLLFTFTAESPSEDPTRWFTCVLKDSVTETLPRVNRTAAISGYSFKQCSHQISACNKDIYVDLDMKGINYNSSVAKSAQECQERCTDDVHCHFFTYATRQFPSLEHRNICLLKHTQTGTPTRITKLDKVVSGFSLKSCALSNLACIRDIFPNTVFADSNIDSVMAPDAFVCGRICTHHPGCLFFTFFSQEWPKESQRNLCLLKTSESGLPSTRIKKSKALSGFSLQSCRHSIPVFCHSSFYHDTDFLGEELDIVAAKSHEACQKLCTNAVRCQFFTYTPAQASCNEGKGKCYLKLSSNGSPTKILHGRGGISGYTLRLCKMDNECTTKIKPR
Kind of assay: Factor XIa Assay (hydrolysis of fluorogenic substrate Z-Gly-Pro-Arg-AFC). The class given is biochemical. Particulars: purified human Factor XIa 40 pM; Z-Gly-Pro-Arg-AFC 100 μM; 50 mM HEPES pH 7.4; read-out: Factor XIa Inhibition (IC50 (nM)). How it is done:
The effectiveness of compounds of the present invention as inhibitors of Coagulation Factor XIa can be determined using a relevant purified serine protease, and an appropriate synthetic substrate. The rate of hydrolysis of the chromogenic or fluorogenic substrate by the relevant serine protease was measured both in the absence and presence of compounds of the present invention. Assays were conducted at room temperature or at 37° C. […] A decrease in the rate of fluorescence change in the presence of inhibitor is indicative of enzyme inhibition. Such methods are known to one skilled in the art. […]
Factor XIa determinations were made in 50 mM HEPES buffer at pH 7.4 containing 150 mM NaCl, 5 mM CaCl2, and 0.1% PEG 8000 (polyethylene glycol; JT Baker or Fisher Scientific). Determinations were made using purified human Factor XIa at a final concentration of 40 pM (Sekisui Diagnostics) and the synthetic substrate, Z-Gly-Pro-Arg-AFC, TFA salt (Sigma #C0980) at a concentration of 100 μM.
Times required to achieve equilibration between enzyme and inhibitor were determined in control experiments. Initial velocities of product formation in the absence (Vo) or presence of inhibitor (Vi) were measured. Assuming competitive inhibition, and that unity is negligible compared Km/[S], [I]/e, and [I]/e (where [S], [I], and e respectively represent the total concentrations, of substrate, inhibitor and enzyme), the equilibrium constant (Ki) for dissociation of the inhibitor from the enzyme can be obtained from the dependence of Vo/Vi on [I] shown in the following equation.
In the case of `O=C(Nc1ccc2[nH]ncc2c1)[C@@H]1[C@H](c2ccc(F)cc2)C[C@H](N2CCOCC2)CN1C(=O)/C=C/c1cc(Cl)ccc1-n1cnnn1` [Example 29, (2S,3S,5S)-1′-{(2E)-3-[5-Chloro-2-(1H-tetrazol-1-yl)phenyl]prop-2-enoyl}-3-(4-fluorophenyl)-N-1H-indazol-5-yl-5-morpholin-4-ylpiperidine-2-carboxamide], the IC50 (usually the point on the concentration scale where inhibition reaches its midpoint) worked out at 81.1 nM.

As for `O=C(O)c1ccc(NC(=O)[C@@H]2[C@H](c3ccccc3)C[C@H](OC3CCNCC3)CN2C(=O)/C=C/c2cc(Cl)ccc2-n2cnnn2)cc1` (racemic) [Example 8, 4-(1-((E)-3-(5-Chloro-2-(1H-tetrazol-1-yl)phenyl)acryloyl)-3-phenyl-5-(piperidin-4-yloxy)piperidine-2-carboxamido)benzoic acid], the 50% inhibitory concentration (IC50) was found to be 4.7 nM.

On to `COC(=O)Nc1ccc(-c2c[nH]c(C3C(c4ccc(F)cc4)CC(N4CCC(N)CC4)CN3C(=O)/C=C/c3c(F)ccc(Cl)c3F)n2)cc1` (centres unmarked) [Example 21, methyl [4-(2-{4-amino-1′-[(2E)-3-(3-chloro-2,6-difluorophenyl)prop-2-enoyl]-5′-(4-fluorophenyl)-1,3′-bipiperidin-6′-yl}-1H-imidazol-4-yl)phenyl]carbamate], for which the IC50 was determined as 407 nM.

Regarding `O=C(O)c1ccc(NC(=O)[C@@H]2[C@H](c3ccccc3)C[C@H](OC3CCNCC3)CN2C(=O)/C=C/c2cc(Cl)ccc2-n2cnnn2)cc1` (single isomer, unassigned) [Example 9], the IC50 was determined as 2.5 nM.

With `NC1CCN([C@H]2C[C@@H](c3ccc(F)cc3)[C@@H](c3nc(-c4cccnc4)c[nH]3)N(C(=O)/C=C/c3cc(Cl)ccc3-n3cnnn3)C2)CC1` [Example 15, (3′S,5′S,6′S)-1′-{(2E)-3-[5-chloro-2-(1H-tetrazol-1-yl)phenyl]prop-2-enoyl}-5′-(4-fluorophenyl)-6′-(4-pyridin-3-yl-1H-imidazol-2-yl)-1,3′-bipiperidin-4-amine], the IC50 worked out at 82.1 nM.

For the compound `COC(=O)Nc1ccc(-c2cnc(C3C(c4ccc(F)cc4)CC(N4CCC(N)CC4)CN3C(=O)/C=C/c3c(C(F)(F)F)ccc(Cl)c3F)[nH]2)cc1` (centres unmarked) [Example 19, methyl (4-{2-[4-amino-1′-{(2E)-3-[3-chloro-2-fluoro-6-(trifluorometh-yl)phenyl]prop-2-enoyl}-5′-(4-fluorophenyl)-1,3′-bipiperidin-6′-yl]-1H-imidazol-5-yl}phenyl)carbamate], the half-maximal inhibitory concentration (IC50) was determined as 67.8 nM.

For `COC(=O)Nc1ccc(-c2c[nH]c([C@@H]3[C@H](C4CC4)C[C@H](C4CCN(S(C)(=O)=O)CC4)CN3C(=O)/C=C/c3cc(Cl)ccc3-n3cnnn3)n2)cc1` (single isomer, unassigned) [Example 28], the IC50 is 652 nM.

In the case of `COC(=O)Nc1ccc(-c2cnc(C3C(c4ccc(F)cc4)CC(N4CCC(N)CC4)CN3C(=O)/C=C/c3c(C(F)(F)F)ccc(Cl)c3F)[nH]2)cc1` (centres unmarked) [Example 20, methyl (4-{2-[4-amino-1′-{(2E)-3-[3-chloro-2-fluoro-6-(trifluoromethyl)phenyl]prop-2-enoyl}-5′-(4-fluorophenyl)-1,3′-bipiperidin-6′-yl]-1H-imidazol-5-yl}phenyl)carbamate], the IC50 came to 128 nM.

Turning to `C[C@@H]1C[C@H](C2CCNCC2)CN(C(=O)c2ccc(CN)c(C3CC3)c2)[C@@H]1C(=O)Nc1ccc(C(=O)O)cc1` [Example 25, 4-((3R,5R,6S)-1-(4-(aminomethyl)-3-cyclopropylbenzoyl)-5-methy-1-[3,4′-bipiperidine]-6-carboxamido) benzoic acid], the IC50 amounted to 519 nM.

For the compound `CC1CC(N2CCC(N)CC2)CN(C(=O)/C=C/c2cc(Cl)ccc2-n2cnnn2)C1C(=O)Nc1ccc(C(=O)O)cc1` (centres unmarked) [Example 5, 4-{[(4-amino-1′-{(2E)-3-[5-chloro-2-(1H-tetrazol-1-yl)phenyl]prop-2-enoyl}-5′-methyl-1,3′-bipiperidin-6′-yl)carbonyl]amino}benzoic acid], the IC50 worked out at 105 nM.

As for `C[C@@H]1C[C@H](C2CCNCC2)CN(C(=O)/C=C/c2cc(Cl)ccc2-n2cnnn2)[C@@H]1C(=O)Nc1ccc(C(=O)O)cc1` [Example 24, 4-((3R,5R,6S)-1-((E)-3-(5-chloro-2-(1H-tetrazol-1-yl)phenyl)acryloyl)-5-methyl-[3,4′-bipiperidine]-6-carboxamido)benzoic acid], the IC50 was 579 nM.

On to `COC(=O)Nc1ccc(-c2c[nH]c([C@@H]3[C@H](C4CC4)C[C@H](C4CCNCC4)CN3C(=O)/C=C/c3cc(Cl)ccc3-n3cnnn3)n2)cc1` (single isomer, unassigned) [Example 26], for which the IC50 was 656 nM.

On to `O=C(O)c1ccc(NC(=O)[C@@H]2[C@H](OC3CCNCC3)C[C@H](c3ccccc3)CN2C(=O)/C=C/c2cc(Cl)ccc2-n2cnnn2)cc1` (racemic) [Example 12, 4-(1-((E)-3-(5-chloro-2-(1H-tetrazol-1-yl)phenyl)acryloyl)-5-phenyl-3-(piperidin-4-yloxy)piperidine-2-carboxamido)benzoic acid], for which the IC50 turned out to be 155 nM.

As for `NC1CCN(C2CC(C3CC3)C(C(=O)Nc3ccc(C(=O)O)cc3)N(C(=O)/C=C/c3cc(Cl)ccc3-n3cnnn3)C2)CC1` (centres unmarked) [Example 4, 4-{[(4-amino-1′-{(2E)-3-[5-chloro-2-(1H-tetrazol-1-yl)phenyl]prop-2-enoyl}-5′-cyclopropyl-1,3′-bipiperidin-6′-yl)carbonyl]amino}benzoic acid], the IC50 was found to be 2.2 nM.

As for `N#Cc1ccc(-c2cnc(C3C(c4ccc(F)cc4)CC(N4CCC(N)CC4)CN3C(=O)/C=C/c3c(C(F)(F)F)ccc(Cl)c3F)[nH]2)cc1` (centres unmarked) [Example 16, 4-{2-[4-amino-1′-{(2E)-3-[3-chloro-2-fluoro-6-(trifluoromethyl)phen-yl]prop-2-enoyl}-5′-(4-fluorophenyl)-1,3′-bipiperidin-6′-yl]-1H-imidazol-5-yl}benzonitrile], the IC50 was determined as 35.6 nM.

Regarding `N#Cc1ccc(-c2cnc(C3C(c4ccc(F)cc4)CC(N4CCC(N)CC4)CN3C(=O)/C=C/c3c(C(F)(F)F)ccc(Cl)c3F)[nH]2)cc1` (centres unmarked) [Example 17, 4-{2-[4-amino-1′-{(2E)-3-[3-chloro-2-fluoro-6-(trifluoromethyl)phen-yl]prop-2-enoyl}-5′-(4-fluorophenyl)-1,3′-bipiperidin-6′-yl]-1H-imidazol-5-yl}benzonitrile], the IC50 was determined as 889 nM.

As to `CC(=O)N1CCN([C@H]2C[C@@H](c3ccc(F)cc3)[C@@H](C(=O)Nc3ccc4[nH]ncc4c3)N(C(=O)/C=C/c3cc(Cl)ccc3-n3cnnn3)C2)CC1` [Example 32, (2S,3S,5S)-5-(4-acetylpiperazin-1-yl)-1-{(2E)-3-[5-chloro-2-(1H-tetrazol-1-yl)phenyl]prop-2-enoyl}-3-(4-fluorophenyl)-N-1H-indazol-5-ylpiperidine-2-carboxamide], the IC50 came to 72.2 nM.

With `NC1CCN(C2CC(c3ccc(F)cc3)C(c3nc(-c4cccnc4)c[nH]3)N(C(=O)/C=C/c3cc(Cl)ccc3-n3cnnn3)C2)CC1` (centres unmarked) [Example 14, 1′-{(2E)-3-[5-chloro-2-(1H-tetrazol-1-yl)phenyl]prop-2-enoyl}-5′-(4-fluorophenyl)-6′-(4-pyridin-3-yl-1H-imidazol-2-yl)-1,3′-bipiperidin-4-amine], the concentration for half-maximal inhibition (IC50) came out at 139 nM.

For `O=C(O)c1ccc(NC(=O)[C@@H]2[C@H](c3ccccc3)C[C@H](C3CCNCC3)CN2C(=O)/C=C/c2cc(Cl)ccc2-n2cnnn2)cc1` (single isomer, unassigned) [Example 23, trifluoroacetic acid salt], the IC50 turned out to be 640 nM.

`NC1CCN([C@@H]2C[C@H](c3ccccc3)[C@H](C(=O)Nc3ccc(C(=O)O)cc3)N(C(=O)/C=C/c3cc(Cl)ccc3-n3cnnn3)C2)CC1` [Example 7, 4-({[(3′R,5′R,6′R)-4-amino-1′-{(2E)-3-[5-chloro-2-(1H-tetrazol-1-yl)phenyl]prop-2-enoyl}-5′-phenyl-1,3′-bipiperidin-6′-yl]carbonyl}amino)benzoic acid]: the IC50 was 0.4 nM.

In the case of `O=C(Nc1ccc2[nH]ncc2c1)[C@H]1[C@@H](c2ccc(F)cc2)C[C@@H](N2CCNCC2)CN1C(=O)/C=C/c1cc(Cl)ccc1-n1cnnn1` [Example 30, (2R,3R,5R)-1-{(2E)-3-[5-chloro-2-(1H-tetrazol-1-yl)phenyl]prop-2-enoyl}-3-(4-fluorophenyl)-N-1H-indazol-5-yl-5-piperazin-1-ylpiperidine-2-carboxamide], the IC50 stood at 767 nM.

Regarding `COC(=O)Nc1ccc(-c2c[nH]c(C3C(c4ccc(F)cc4)CC(C4CCNCC4)CN3C(=O)/C=C/c3cc(Cl)ccc3-n3cnnn3)n2)cc1` (centres unmarked) [Example 27, methyl (4-{2-[1-{(2E)-3-[5-chloro-2-(1H-tetrazol-1-yl)phenyl]prop-2-enoyl}-5-(4-fluorophenyl)-3,4′-bipiperidin-6-yl]-1H-imidazol-4-yl}phenyl)car-bamate], the IC50 is 710 nM.

As to `COC(=O)Nc1ccc(-c2c[nH]c([C@@H]3[C@H](C4CC4)C[C@H](N4CCC(N)CC4)CN3C(=O)/C=C/c3cc(Cl)ccc3-n3cnnn3)n2)cc1` [Example 22, methyl (4-{2-[(3′S,5′S,6′S)-4-amino-1′-{(2E)-3-[5-chloro-2-(1H-tetrazol-1-yl)phenyl]prop-2-enoyl}-5′-cyclopropyl-1,3′-bipiperidin-6′-yl]-1H-imidazol-4-yl}phenyl)carbamate], the IC50 came to 671 nM.

For the origin of these results see patent US10239863B2, “Factor XIa inhibitors” (Merck Sharp & Dohme Corp., priority 2013, dated 2019).
